Several values for one entry are separate records, joined by “and”; a condition that tells them apart may be missing. Equal values may be shown once.
Assays:
Assay type in all cases: in vitro ADME
rat hepatocytes = assay: Hepatocyte intrinsic clearance assay (metabolic stability), rat hepatocytes; details: for EH (hepatic extraction ratio): well stirred liver model, fu=1; for CLint lower than that of ARI-164 (fold): rat hepatocytes
Description: (§1) The liver is an important organ in the body for drug metabolism. This Example describes hepatocyte intrinsic clearance assays using both human and rat hepatocytes to evaluate the metabolic stability of the indole compounds disclosed herein. The parameters measured include t1/2 (half-life), CLint (intrinsic clearance), and EH (hepatic extraction ratio).
(§2) Testosterone (Lot FE111011-01) was obtained from Cerilliant (Round Rock, Tex.). 7-hydroxycoumarin (Lot 11631ED) was obtained from Sigma Aldrich (St. Louis, Mo.). Cryopreserved human hepatocytes pooled from ten donor males (X008001), cryopreserved male IRC/CD-1 mouse hepatocytes (M005052), INVITROGRO HI Medium (incubation), and INVITROGRO HT Medium (thawing) were obtained from Bioreclamation IVT (Baltimore, Md.). All solvents were obtained from commercial sources and used without further purification.
(§3) Each test compound was prepared as a 1 mM stock solution in DMSO. A 2 μM solution of test compound and positive controls were prepared in INVITROGRO HI Medium (incubation). These solutions were pre-warmed in a sterile incubator set to maintain 37° C., 5% CO2, and 98% humidity. Cryopreserved hepatocytes were prepared at a concentration of 2×10^6 living cells/mL in incubation media and pre-warmed in the incubator. The compound solutions and hepatocyte mixtures were then combined at a ratio of 1:1 (v:v). The final volume of the reaction mixture was 750 μL, containing 1 μM test compound (10 μM for 7-hydroxycoumarin) and […]. The reaction mixture was placed in the incubator on a plate shaker. After 0, 15, 30, 60, 90, and 120 minutes of incubation, 100 μL of reaction mixtures were removed from the incubation plate and mixed with 150 μL of ice-cold acetonitrile in a designated well of a 96-well crash plate. The 96-well crash plate was placed on ice for 15 min, and samples were centrifuged (3,600 RPM, 10 min, 4° C.) to precipitate protein. The supernatants were diluted 1:1 (v:v) with water containing 0.15 μM verapamil and/or 1 μM tolbutamide (internal standards for positive and negative modes, respectively) in a 96-well shallow injection plate. This plate was sealed for LC-MS analysis. All measurements were done in duplicate.
(§4) The residual compound remaining (% R) was determined from LC-MS peak areas by comparison to the zero time point. Metabolic half-life (t1/2) and intrinsic clearance (CLint) values were calculated from the slope of the plot of ln (% R) vs. time and the concentration of hepatocytes present in the incubation. Percent remaining at 60 minutes was calculated by plugging in the 60 minute value into the slope equation generated by the percent remaining time points.
(§5) In vivo hepatic clearance CLH was calculated using the well stirred liver model according to the following equation:
(§6) [formula] where QH is the total liver blood flow, fu is unbound fraction of the drug, and CL′int is defined as follows: CL′int=CLint×(10^6 cells/g of liver weight)×(g liver weight/kg of body weight). In the first approximation, used in this study, fu=1.
(§7) Hepatic extraction ratio EH was calculated using the following equation:
(§8) [formula] Corresponding physiological parameters used in calculations for all species are shown below in Table 3.

[1] = CYP profiling: turnover in human liver microsomes, 30 min, no inhibitor; parameters: % Compound Metabolized at 30 min, No Inhibitor: concentration or dose not given beside the values; details: HLMs
Experimental: (§9) In order to investigate the contributions of CYP1A2 and CYP3A4 to the metabolism of the compounds of the present disclosure, human liver microsomes were incubated with the test compounds for 30 minutes in the presence of selective chemical inhibitors furafylline (1A2) and ketoconazole (3A4).

CYP1A2 = biological target: T1, CYP1A2 (Homo sapiens, UniProt P05177); assay: CYP profiling: human liver microsomes with CYP1A2 inhibitor furafylline; parameters: % Compound Metabolized at 30 min, CYP1A2 Inhibitor: concentration or dose not given beside the values; details: HLMs; for % Inhibition Relative to Negative Control, 1A2: 30 min
T1 construct: from tissue; host or cells: human liver microsomes
T1 sequence (P05177 1-516): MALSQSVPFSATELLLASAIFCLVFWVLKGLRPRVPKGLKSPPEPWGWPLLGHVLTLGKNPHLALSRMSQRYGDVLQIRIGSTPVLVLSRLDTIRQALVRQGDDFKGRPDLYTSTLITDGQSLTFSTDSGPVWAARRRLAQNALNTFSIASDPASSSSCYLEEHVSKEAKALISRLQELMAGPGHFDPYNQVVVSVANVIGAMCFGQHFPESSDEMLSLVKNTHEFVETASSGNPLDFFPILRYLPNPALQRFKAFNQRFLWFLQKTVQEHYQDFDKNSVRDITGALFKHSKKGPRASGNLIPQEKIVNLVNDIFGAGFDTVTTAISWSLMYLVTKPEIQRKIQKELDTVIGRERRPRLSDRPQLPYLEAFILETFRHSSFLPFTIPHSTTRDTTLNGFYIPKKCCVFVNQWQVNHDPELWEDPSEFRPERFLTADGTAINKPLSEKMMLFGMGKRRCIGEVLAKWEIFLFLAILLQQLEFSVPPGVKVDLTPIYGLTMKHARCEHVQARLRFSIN
Experimental: as §9

[2] = Hepatocyte intrinsic clearance assay (metabolic stability), rat hepatocytes; details: rat, cryopreserved hepatocytes, Rat Hepatocytes, 1 μM test compound
Description: as §1, §2, §3, §4, §5, §6, §7, §8

Row | Structure (SMILES) | EH (hepatic extraction ratio) (rat hepatocytes; Rat Hepatocytes) | % Compound Metabolized at 30 min, No Inhibitor [1] | % Compound Metabolized at 30 min, CYP1A2 Inhibitor (CYP1A2) | % Inhibition Relative to Negative Control, 1A2 (CYP1A2) | half-life at 1 μM [2] [h] | hepatocyte CLint at 1 μM [2] [µL/min/1e6 cells] | CLint (rat hepatocytes; Rat Hepatocytes, 1 μM test compound) [μL/min/10^6 cells] | CLint lower than that of ARI-164 (fold) (rat hepatocytes) | metabolic turnover (in words) [1]
1 | CCC(=O)c1csc(C(=O)c2c[nH]c3cc(F)ccc23)n1 [ARI-143, 1-(2-(6-fluoro-1H-indole-3-carbonyl)thiazol-4-yl)propan-1-one] | 48.0% and 47.8% and 48.5% and 49.7% and 74.6% | 69% and 91% | 32% and 17% | 54% and 81% | – | – | – | – | –
2 | CC[C@H](O)c1csc(C(=O)c2c[nH]c3cc(F)ccc23)n1 [ARI-164, (S)-(6-Fluoro-1H-indol-3-yl)(4-(1-hydroxypropyl)thiazol-2-yl)methanone] | 33.3% and 34.6% and 28.8% and 35.0% and 48.8% | 37% | 4% | 89% | – | – | – | – | –
3 | CC[C@H](N)c1csc(C(=O)c2c[nH]c3cc(F)ccc23)n1 [ARI-186, (S)-(4-(1-aminopropyl)thiazol-2-yl)(6-fluoro-1H-indol-3-yl)methanone] | 21.6% | 13% | 10% | 23% | 2.8 | 4.1 | 4.127 | 1.8 × | very low turnover
4 | CC[C@@H](N)c1csc(C(=O)c2c[nH]c3cc(F)ccc23)n1 [ARI-187, (R)-(4-(1-aminopropyl)thiazol-2-yl)(6-fluoro-1H-indol-3-yl)methanone] | 24.8% | 4% | 7% | None | 2.3 | 4.93 | – | – | –
5 | O=C(c1nc([C@@H](O)C(F)(F)F)cs1)c1c[nH]c2cc(F)ccc12 [ARI-211] | 17.7% | 50% | 67% | None | 3.6 | 3.21 | – | – | –
6 | O=C(c1nc([C@H](O)C(F)(F)F)cs1)c1c[nH]c2cc(F)ccc12 [ARI-212] | 20.5% | 43% | 51% | None | 3 | 3.85 | – | – | –
7 | CC[C@H](N)c1csc(C(=O)c2c[nH]c3ccc(F)cc23)n1 [ARI-218] | 42.5% | 16% | 17% | None | 1 | 11.1 | – | – | –
8 | CC[C@@H](N)c1csc(C(=O)c2c[nH]c3ccc(F)cc23)n1 [ARI-219] | 58.9% | 13% | 5% | 62% | 0.5 | 21.4 | – | – | –
9 | CC(C)(O)c1csc(C(=O)c2c[nH]c3cc(F)ccc23)n1 [ARI-220, (6-fluoro-1H-indol-3-yl)(4-(2-hydroxypropan-2-yl)thiazol-2-yl)methanone] | 24.2% | 41% | 0% | 100% | 2.4 | 4.77 | – | – | –
10 | O=C(c1nc(C2(O)CC2)cs1)c1c[nH]c2cc(F)ccc12 [ARI-221, (6-fluoro-1H-indol-3-yl)(4-(1-hydroxycyclopropyl)thiazol-2-yl)methanone] | 27.1% | 95% | 28% | 71% | 2.1 | 5.55 | – | – | –
11 | N[C@H](c1csc(C(=O)c2c[nH]c3cc(F)ccc23)n1)C(F)(F)F [ARI-223] | 63.1% | 79% | 12% | 85% | 0.5 | 25.6 | – | – | high turnover
12 | N[C@@H](c1csc(C(=O)c2c[nH]c3cc(F)ccc23)n1)C(F)(F)F [ARI-224] | 29.0% | 9% | 7% | 22% | 1.9 | 6.12 | – | slightly lower | low turnover
13 | NC1(c2csc(C(=O)c3c[nH]c4cc(F)ccc34)n2)CC1 [ARI-225, (4-(1-aminocyclopropyl)thiazol-2-yl)(6-fluoro-1H-indol-3-yl)methanone] | 60.8% | 39% | 10% | 74% | 0.5 | 23.2 | – | – | high turnover
14 | CC(C)(N)c1csc(C(=O)c2c[nH]c3cc(F)ccc23)n1 [ARI-226, (4-(2-aminopropan-2-yl)thiazol-2-yl)(6-fluoro-1H-indol-3-yl)methanone] | 30.4% | 6% | 16% | None | 1.8 | 6.54 | – | slightly lower | low turnover

From US11390621B2, “Chiral indole compounds and their use” (ARIAGEN, INC., priority 2019, dated 2022)
